Source: US6015877A, “Compounds for inhibition of proteolysis” (President and Fellows of Harvard College, priority 1996, dated 2000)
Read-outs that look alike come from different tables or passages of the source. Each block holds one molecule with its values, some of them ahead of it. Where no end group is shown, it is not given here. The star is where a group is joined. Farnesyl = CC(C)=CCC/C(C)=C/CC/C(C)=C/C*

How the values were obtained:
[1] = molecular target: T1, cysteine protease apopain (Homo sapiens, UniProt P42574); conditions: cited from earlier work
T1 sequence (P42574 29-175 limits assumed): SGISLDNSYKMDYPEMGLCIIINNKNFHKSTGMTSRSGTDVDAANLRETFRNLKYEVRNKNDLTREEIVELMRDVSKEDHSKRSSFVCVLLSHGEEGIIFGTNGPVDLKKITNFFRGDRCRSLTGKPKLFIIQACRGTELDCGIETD
T1 sequence (P42574 176-277 limits assumed): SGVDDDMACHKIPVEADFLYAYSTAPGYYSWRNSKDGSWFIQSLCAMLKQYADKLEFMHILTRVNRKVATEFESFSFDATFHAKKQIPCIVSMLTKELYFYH

[2] = tested on: isoprenylated protein endoprotease; test: Inhibition of the solubilized / partially purified enzyme by non-halomethyl ketone inhibitors; format: biochemical, bovine
[3] = molecular target: T2, cysteine protease ICE (interleukin-1β converting enzyme) (Homo sapiens, UniProt P29466); conditions: cited from earlier work
T2 sequence (P29466 120-297 limits assumed): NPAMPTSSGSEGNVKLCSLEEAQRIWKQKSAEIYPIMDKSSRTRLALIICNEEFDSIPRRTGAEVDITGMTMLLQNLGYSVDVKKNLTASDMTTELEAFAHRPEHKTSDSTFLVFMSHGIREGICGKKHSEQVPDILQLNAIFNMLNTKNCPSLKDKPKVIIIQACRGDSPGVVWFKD
T2 sequence (P29466 317-404 limits assumed): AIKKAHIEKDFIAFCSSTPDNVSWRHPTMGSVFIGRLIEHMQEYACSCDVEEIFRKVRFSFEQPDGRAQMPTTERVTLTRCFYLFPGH

[4] = tested on: second small proteolytic activity, apparent molecular mass approximately 60 kDa; test: Inhibition of the second small peak of proteolytic activity (approximately 60 kDa) after gel filtration; format: biochemical, bovine
Description: These properties of CHAPSO make it ideal, among the detergents tested, for the solubilization of the endoprotease. […] It should be noted that a second small amount of proteolytic activity was also found with an apparent molecular mass of approximately 60 kDa, which amounted to approximately 10% of the major peak, but which chromatographed at a smaller molecular size than the major peak. This smaller peak was not investigate further, for several reasons. Quantitatively, it is not significant. […] It also is no known if the smaller peak of activity i s comprised of an endoproteolytic activity or is simply made up of nonspecific proteases. […] All further studies described here will be relevant to the major solubilized peak of activity.

[5] = tested on: isoprenylated protein endoprotease; test: Inhibition of the isoprenylated protein endoprotease by halomethyl ketones (preincubation, 20-fold dilution, Kitz-Wilson); format: biochemical, bovine; conditions: for Ki: read-out: K1
Description: A typical procedure of inhibition is given here to illustrate the details of this procedure. A CHAPSO-solubilized protein preparation (2.5 mg/mL) or a partially […] protein preparation (0.17 mg/mL) was incubated with chloromethyl ketone inhibitors at 37° C. for 30 minutes. Aliquots were removed at timed intervals and diluted with assay buffer E for the solubilized preparation of with assay buffer D for the partially purified protein preparation in 20-fold. The final protein and substrate concentrations were 0.12 mg/mL (or 8.5 μg of partially purified protein preparation per milliliter) and 2.0 μM, respectively, except as otherwise noted; the residual enzyme activity was assayed as described above. TPCK and BFC-CMK were characterized by kinetic measurements. The bimolecular rate constant Kinh /K1 and pseudo-first-order kinetic rate constant Kinh were obtained using the Kitz-Wilson method (Kitz & Wilson, 1962). According to Kitz-Wilson method, the irreversible modification of an enzyme by an active-site directed inhibitor is given by [drawing 9] where K1 =[E]·[I]/[E·I] and -d([E]+[E·I])/dt=Kinh [E·I]. [I] and [E] are inhibitor and enzyme concentrations at a certain time, respectively. Under conditions here [I]>>[Eo ], which is the enzyme concentration at time zero, [I] is constant. Under conditions where the enzyme-inhibitor solution is extensively diluted before the assay, a simplified equation 2 can be obtained as follows: […]
To further establish the specificity of the inactivation process, several commercially available haloketones were studies as putative inactivators of the endoprotease. The structures of these analogs are shown and their activities are shown in Table V. In these studies, the solubilized protein material was preincubated with a chloromethyl ketone inhibitor at 284 μM (unless otherwise noted) for 30 minutes; then 2.5-μL aliquots of the incubated solution were taken and diluted 20-fold for assay of the residual enzyme activity. […] Save for the dipeptide derivatives (ZGGFCMK and ZAPFCMK) derived from TPCK, the other halomethyl ketones tested are virtually inert.
FIG. 16(A) Time-dependent inhibition. 16B Kitz-Wilson plot (the upper panel) for the inhibition of the isoprenylated protein endoprotease by TPCK. The inhibition studies were carried out at 37° C. using the solubilized endoprotease preparation. Aliquote of the inhibitor-enzyme solution were taken at interval times and diluted by a factor of 20, and the enzyme activity was assayed as described in Methods. (B) (the lower panel) the concentration-dependent inhibition of the endoprotease by TPCK. The inhibition studies were carried out at 37° C. The crude CHAPSO-solubilized endoprotease preparations (0.12 mg/mL) were preincubated for 60 min in 50 μL of buffer E in the presence of 284 μM TPCK or TLCK with 6% DMSO and 2% 2-propanol. After the incubation, the reaction solution was diluted by a factor of 20, and the remaining enzyme activity of the inhibitor-enzyme solution was assayed as described in Methods. Data were represented in mean from duplicate runs.

[6] = tested on: protease of bovine liver microsomal membranes (isoprenylated protein endoprotease); test: Inhibition of proteolysis of [3H]-AFC-val-ile-ser by peptides, calf liver microsomes; format: biochemical
Description: As expected, the proteolysis of [^3 H]-AFC-val-ile-ser or [^3 H]-(SEQ ID NO: 1) was inhibited by the dipeptide substrate (AFC-val) and by the tripeptide substrate (AFC-val-ile). Incubation of 4 μM substrate along with either 20 μM of the dipeptide or tripeptide led to an approximately 50% diminution in substrate cleavage.

[7] = tested on: protease of bovine liver microsomal membranes (isoprenylated protein endoprotease); test: Proteolysis of N-[3H]acetyl isoprenylated peptide substrates by calf liver microsomal membranes (N-[3H]-AFC formation, HPLC)
[8] = tested on: stereospecific proteolytic enzymatic activity in dog pancreatic microsomes; test: Proteolysis of tetrapeptide substrates by dog pancreatic microsomes; format: biochemical; conditions: extended incubation conditions
Description: A similar stereospecific proteolytic enzymatic activity was also found in dog pancreatic microsomes. Under extended incubation conditions, where 54% of the tetrapeptide substrate 1 was cleaved by these microsomes, no proteolysis of D-AFC-val-ile-ser 2 could be detected (<1%).

[9] = tested on: isoprenylated protein endoprotease; conditions: 425 ng partially purified protein preparation in 50 μL
[10] = solubilized endoprotease preparation, 37° C., Kitz-Wilson
[11] = Table 1, same enzyme preparation, average of two determinations ±S.D.
[12] = calf liver microsomal membranes
[13] = former measurement, different microsome preparation from a different animal

inhibition of the endoprotease (in words) ([2]; 0.5 mM): insensitive
enzyme activity (%) detergent extract ([2]; inhibitor 0.11 mM, control 100): 113 ± 0%
enzyme activity (%) partially purified ([2]; inhibitor 0.5 mM, control 100): 103 ± 4%
Molecule: CC(C)C[C@H](NC(=O)[C@H]1O[C@@H]1C(=O)O)C(=O)NCCCCN=C(N)N (relative stereo) [E-64, N-[N-(L-3-trans-carboxyoxiran-2-carbonyl)-L-leucyl]agmatine]
inhibition of apopain (in words) [1]: not
inhibition of ICE (in words) [3]: insensitive

inhibition of the endoprotease (in words) ([2]; 1 mM): not inhibited
enzyme activity (%) detergent extract ([2]; inhibitor 1 mM, control 100): 90 ± 10%
Molecule: c1cnc2c(c1)ccc1cccnc12 [1,10-.phi., N,N'-phenanthroline]
effect on the major (primary) solubilized peak of activity (in words) ([2]; CHAPSO-solubilized enzyme after gel filtration): without effect on the primary peak of activity
inhibition of the smaller peak of proteolytic activity (in words) [4]: potently inhibited

Molecule: NC(=O)CI [IAA, iodoacetamide]
inhibition of apopain (in words) [1]: inhibited
inhibition of the endoprotease (in words) ([2]; 0.4 mM): insensitive
inhibition of ICE (in words) [3]: inactivated

Molecule: Cc1ccc(S(=O)(=O)N[C@@H](Cc2ccccc2)C(=O)CCl)cc1 [TPCK, Nα-tosyl-L-phenylalamine chloromethyl ketone]
inhibition of apopain (in words) [1]: not
enzyme activity (%) ([5]; 284 μM inhibitor, solubilized protein preincubated 30 minutes, diluted 20-fold, control 100): 43 ± 5%
regeneration of enzyme activity after gel filtration chromatography and 24-h dialysis (in words) ([5]; enzyme preincubated with TPCK): not regenerated
Ki [5]: ~1000 µM
inhibition / inactivation of the endoprotease (in words) ([5]; solubilized endoprotease): inhibit the endoprotease well
Kinh (s^-1) [5, 10]: (1.4 ± 0.6) × 10^-3 s^-1
Kinh /K1 [5, 10]: 1.28 ± 0.1 M⁻¹ s⁻¹
Ki [5, 10]: 1100 ± 500 µM
inhibition of ICE (in words) [3]: inactivated

Molecule: AC-val-ile-ser: tetrapeptide substrate with the farnesyl moiety deleted (Ac-CVIS)
inhibition of tetrapeptide substrate processing (in words) ([6]; 5-fold excess over tetrapeptide substrate): did not interfere with the processing of the substrate

Km [7, 12]: 9.2 ± 0.21 µM
Km [7, 13]: 12.6 µM
Molecule: N-Ac-S-all-trans-farnesyl-L-Cys-L-Val-L-Ile [AFC--Val--Ile (1)]
diminution in substrate cleavage ([6]; 20 μM peptide, 4 μM [3H]-AFC-val-ile-ser substrate): approximately 50%
Vmax [7, 11]: 57.7 ± 5 pmol/min/mg
Vmax [7, 12]: 58 ± 4.9 pmol/min/mg
substrate activity (in words) [7, 12]: substrates for the enzyme
Vmax [7, 13]: 65.6 pmol/min/mg

Molecule: N-[^3 H]-acetyl-S-all-trans-farnesyl-D-Cys-L-Val-L-Ile-L-Ser [D-AFC-val-ile-ser]
tetrapeptide cleaved (proteolysis) [8]: < 1%
substrate activity (in words) [7, 12]: AFC formation did not occur

Molecule: N-[^3 H]acetyl-S-farnesyl-L-cysteinyl-L-valyl-L-isoleucyl-L-methionine [AFC--Val--Ile--Met (9)]
Km [9]: 0.65 ± 0.08 µM
Vmax [9]: 1.96±0.07 nmol/(min-mg of protein)
Km [7, 11]: 2.96 ± 0.35 µM
Vmax [7, 11]: 126.3 ± 4.7 pmol/min/mg
substrate activity (in words) [7, 12]: good substrate

Km [7, 12]: 4.8 ± 0.6 µM
Molecule: N-acetyl-S-farnesyl-L-cysteine-L-val-L-ile-L-ser (Ac-C(Farnesyl)VIS) [substrate 1]
tetrapeptide cleaved (proteolysis) [8]: 54%
Vmax [7, 12]: 0.236±0.008 nmol/min/mg protein
substrate activity (in words) [7, 12]: substrates for the enzyme
